# According to patent US20130059324A1, “SYSTEMS AND METHODS FOR MECHANICALLY STRAINED CELL CULTURE” (THE UNIVERSITY OF KANSAS, priority 2010, published 2013):
# How the values were obtained:
# A549 cells [1] = assay: Drug exposure with or without simulated forces, 6-well Bioflex plates, live cell count and exponential growth model; assay type: cell-based, human
# Procedure: Treatments 1, 2 and 3 served as unstretched controls for Treatments 4, 5 and 6, respectively. For each cell line and drug, all treatments were independently repeated at least 3 times on different days, with 3 replicates per Treatments 1 and 4 (n=9) and 5 replicates per all other treatments (n=15).
# Cells were passaged in 75 cm2 culture flasks at 37° C. in 5% CO2, and trypsinized using TryplE™ Express (Gibco) containing phenol red.
# Cells were plated in 6-well Bioflex® plates (Flexcell® International Corporation, Hillsborough, N.C.). Each well of the plate has a flexible elastic membrane coated with a thin layer of type I collagen. Type I collagen was chosen since it more accurately represents the physiology of lung tumor cells in vivo. […] In Treatments 1, 2 and 3, NCI-H358 and A549 cells were plated at a density of 100,000 and 20,000 cells/well in 2 ml of corresponding media, respectively. For treatments involving simulated forces (Treatments 4-6), NCI-H358 and A549 cells were plated at a density of 170,000 and 35,000 cells/well, respectively.
# After allowing the cells to adhere to the membrane for 24 hours, the plates assigned for simulated forces were stretched using the FX-4000 Tension plus unit (Flexcell® International Corporation, Hillsborough, N.C.). The Flexcell unit was configured to deliver an alternating positive and negative pressure beneath the cell culture surfaces. Negative pressure pulls the culture surface down over a stationary Delrin post on the baseplate, delivering a uniform biaxial strain to the cells, and subsequent application of positive pressure releases this distension (FIGS. 9A and 9B.) In this manner, the alternating positive and negative pressure simulates forces experienced during respiration. Culture plates experiencing forces were fitted with rubber gaskets and placed on circular loading stations in the baseplate.
# After 72 hours of initial seeding, one of the five drugs was added to Treatments 3 and 6 of each cell line. […] To insure comparability, an aliquot of 1 ml of media without the drug was added to each well in Treatments 2 and 5. After adding the drug or 1 ml of media, the plates from Treatments 5 and 6 were placed back on the baseplate and subjected to the same force profile as before for the remaining 72 hours. Plates from Treatments 2 and 3 (without forces) were placed in the same incubator for the remaining 72 hours.
# Cells were trypsinized and counted at the end of day 3 in Treatments 1 and 4, and at the end of day 6 in the other treatments, using a Beckman Coulter Vi-Cell Analyzer (Beckman Coulter, Fullerton, Calif.). To examine changes in morphology, microphotographs of A549 and NCI-H358 cells were taken at the end of Treatments 1, 2, 4 and 5 using an Olympus inverted microscope and a 10× objective.
# The standard exponential cell growth model (28) was used to describe the changes in live cell counts after each treatment. According to this model, the cell count (e.g., N) at a particular time (e.g., t), is given by the equation:
# N* is the initial cell count and λ is the cell growth rate. For each cell line, the following cell growth rates were estimated: λ=growth rate in the absence of forces and drugs, λd=growth rate in the presence of a particular drug but no forces, λXf=growth rate in the presence of forces but no drugs; and λfd=growth rate in the presence of forces and a particular drug. The growth rates λd and λfd were estimated for each tested drug. Using these growth rates and the exponential growth model, the final cell counts were mathematically modeled for each treatment under various conditions (FIG. 8). For each cell line, a linear regression model that combined the information from the 5 investigated drugs was built using Stata Statistical Software (StataCorp LP, Texas) after log-transforming the six equations listed in FIG. 8. The regression coefficients in the model were the growth rates.
# A549 cells [2] = assay: Prototype 96-well plate, viable cell count (Vi-Cell) with and without mechanical forces; settings: drug at IC90, 24 hours
# Procedure: (§2) After allowing the cells to adhere to the flexible membrane of the 96 well plate for 24 hours, the loading pins and the system described in FIG. 7 to implement mechanical strain were used to deliver 20% maximum strain for 2 seconds to the plate assigned for mechanical forces (+M Group), followed by 2 seconds of rest (15 cycles per minute with an average strain of 10% per cycle) in keeping with a normal human respiration.
# (§3) In a parallel experiments, the cells were treated with anti-tumor drug after 72 hours of initial seeding (after 48 hours of mechanical stretching). The drug was dissolved in dimethyl sulfoxide (DMSO) at stock concentration and added to the respective media. […] The IC90 concentrations of the drugs were then added to prototype plate.
# (§4) The +M Group was subjected to continuous mechanical stretching while the −M Group plate was placed in the same incubator for additional 24 hours.
# (§5) In order to quantify viability, 6 wells per treatment group for ViCell counter and 6 wells per condition for MTS were assigned to determine the cell viability. Using Vi-Cell counter, assigned wells were filled with extra 210 μl of media to keep the volume constant in all the wells. Media from the assigned wells were transferred into a 24-well plate, and the well location was recorded. About 50 μl of trypLE was added to each well and allowed to trypsinize for a maximum of ten minutes. A small amount of media from the 24-well plate was transferred back into corresponding wells of the prototype plate to collect detached cells.
# (§6) Media and cells were transferred back into the corresponding well of the 24-well plate. All wells were brought to a final volume of 1.25 mL with PBS and mixed well. About 1 ml of this cell suspension was transferred to ViCell counter to determine the number of viable cells.
# A549 cells [3] = tested on: A549 cells
# Procedure: as §2, §3, §4, §5, §6
# [4] = tested on: cells in a static monolayer culture; assay: IC90 in static monolayer culture (tested concentration); assay type: cell-based; settings: concentration that inhibits the growth of 90% of the cells in a static monolayer culture
# Procedure: Table 1 includes a list of investigated chemotherapeutic drugs, their mechanisms of action and the tested concentrations.
# After 72 hours of initial seeding, one of the five drugs was added to Treatments 3 and 6 of each cell line. […] The IC90, concentration of the drug that inhibits the growth of 90% of the cells in a static monolayer culture, was used to assure a significant inhibition in the absence of simulated forces. To insure comparability, an aliquot of 1 ml of media without the drug was added to each well in Treatments 2 and 5. After adding the drug or 1 ml of media, the plates from Treatments 5 and 6 were placed back on the baseplate and subjected to the same force profile as before for the remaining 72 hours. Plates from Treatments 2 and 3 (without forces) were placed in the same incubator for the remaining 72 hours.
# H358 cells [5] = assay: Prototype 96-well plate, viable cell count (Vi-Cell) with and without mechanical forces; assay type: cell-based, human
# Procedure: as §2
# In a parallel experiments, the cells were treated with anti-tumor drug after 72 hours of initial seeding (after 48 hours of mechanical stretching). The drug was dissolved in dimethyl sulfoxide (DMSO) at stock concentration and added to the respective media. An aliquot of 50 μl of drug stock solution was added to the well containing 100 μl of media (a 1:3 dilution) in a drug plate to get the desired IC90 concentration of the drug (Table 1). The IC90 concentrations of the drugs were then added to prototype plate.
# as §4
# In order to quantify viability, 6 wells per treatment group for ViCell counter and 6 wells per condition for MTS were assigned to determine the cell viability. Using Vi-Cell counter, assigned wells were filled with extra 210 μl of media to keep the volume constant in all the wells.
# A549 cells [6] = assay: Prototype 96-well plate, MTS assay with and without mechanical forces; assay type: cell-based, human; settings: A549, drug at IC90, 24 hours, 490 nm
# Procedure: (§1) The prototype plate was read using the Biotek plate reader at the wavelength of 490 nm until the media only wells absorbance reached 1.0. For the +M group plate, 30 ul of MTS was added to the assigned wells and kept in the incubator for the same amount of time that required for the −M group to develop and read at the same wavelength.
# H358 cells [7] = assay: as above; assay type: cell-based, human; settings: drug at IC90, 24 hours, 490 nm
# Procedure: as §1
smiles,measurement,setting,value
CC(=O)O[C@H]1C(=O)[C@@]2(C)[C@H]([C@H](OC(=O)c3ccccc3)[C@]3(O)C[C@H](OC(=O)[C@H](O)[C@@H](NC(=O)c4ccccc4)c4ccccc4)C(C)=C1C3(C)C)[C@]1(OC(C)=O)CO[C@@H]1C[C@@H]2O [Paclitaxel],"Growth Rates, With forces","A549 cells [1]; drug at IC90 for 3 days, 20% maximum strain, 15 cycles/minute",−0.038 per day
same,"Growth Rates, Without forces","A549 cells [1]; drug at IC90 for 3 days, no forces, negative = reduction in viable cell count",0.133 per day
same,"Effectiveness of The Drug, Without forces (E)","A549 cells [1]; percentage reduction in live cell counts, 3-day drug exposure at IC90, no forces",76.9%
same,"Effectiveness of The Drug, With forces (Ef)","A549 cells [1]; percentage reduction in live cell counts, 3-day drug exposure at IC90, simulated forces",57.5%
same,"Viable Cell Count after 24 hours of drug exposure, With forces (Ef)",A549 cells [2]; mechanical forces,11875.0
same,"Viable Cell Count after 24 hours of drug exposure, Without forces (E)",A549 cells [2]; no forces,33125.0
same,Effect of mechanical forces on viable cell count / cytotoxicity,A549 cells [3],Statistically significant reduction
same,IC90,[4],50 nM
same,Effect of mechanical forces on viable cell count / cytotoxicity,"H358 cells [5]; 24 hours drug exposure, prototype 96-well plate",remained unaffected
same,"Viable Cell Count after 24 hours of drug exposure, With forces (Ef)","H358 cells [5]; drug at IC90, 24 hours, mechanical forces",9687.5
same,"Viable Cell Count after 24 hours of drug exposure, Without forces (E)","H358 cells [5]; drug at IC90, 24 hours, no forces",21250.0
same,"MTS absorbance after 24 hours of drug exposure, With forces (Ef)",A549 cells [6]; mechanical forces,0.293
same,"MTS absorbance after 24 hours of drug exposure, Without forces (E)",A549 cells [6]; no forces,0.567
same,"MTS absorbance after 24 hours of drug exposure, With forces (Ef)",H358 cells [7]; mechanical forces,0.345
same,"MTS absorbance after 24 hours of drug exposure, Without forces (E)",H358 cells [7]; no forces,0.522
